Experiment [1] concerns Escherichia coli. Nature of the experiment: Synergistic antibacterial activity against rifampicin-resistant Escherichia coli ATCC 25922 assessed as fractional inhibitory concentration index incubated for 18 hrs in presence of rifampicin by checker board assay. The experiment is classed as functional.
In experiment [2] the test system is Staphylococcus aureus. Nature of the experiment: Antimicrobial activity against Staphylococcus aureus ATCC 25923 assessed as reduction in bacterial growth incubated for 18 hrs in presence of 4 uM FeCl3 by CLSI protocol based broth microdilution method (reference value: 8 uM). It counts as functional. For orientation: In broth dilution the organism is exposed to a series of concentrations in liquid medium.

Experiment [3] concerns Escherichia coli. The experiment is described as follows: Antimicrobial activity against Escherichia coli ATCC 25922 assessed as reduction in bacterial growth incubated for 18 hrs in presence of 150 mM NaCl by CLSI protocol based broth microdilution method (reference value: 8 uM). The experiment is classed as functional.
Experiment [4] relates to Staphylococcus aureus. Nature of the experiment: Antimicrobial activity against Staphylococcus aureus ATCC 25923 assessed as reduction in bacterial growth incubated for 18 hrs in presence of 10% serum by CLSI protocol based broth microdilution method (reference value: 8 uM). It counts as functional.
Experiment [5] deals with Escherichia coli. Nature of the experiment: Antimicrobial activity against Escherichia coli ATCC 25922 assessed as reduction of bacterial growth at 2 times MIC incubated for 18 hrs in presence of trypsin by CLSI protocol based broth microdilution method. The experiment is classed as functional, organism-based.
The subject of experiment [6] is Staphylococcus aureus. The experiment is described as follows: Antimicrobial activity against Staphylococcus aureus ATCC 25923 assessed as reduction of bacterial growth at 2 times MIC incubated for 18 hrs in presence of trypsin by CLSI protocol based broth microdilution method. It counts as functional, organism-based.
Experiment [7] has as its system Staphylococcus aureus. The experiment is described as follows: Antimicrobial activity against Staphylococcus aureus ATCC 25923 assessed as reduction in bacterial growth incubated for 18 hrs in presence of 1 mM MgCl2 by CLSI protocol based broth microdilution method (reference value: 8 uM). It counts as functional.
Experiment [8] relates to Escherichia coli. Nature of the experiment: Antimicrobial activity against Escherichia coli ATCC 25922 assessed as reduction in bacterial growth incubated for 18 hrs in presence of 10% serum by CLSI protocol based broth microdilution method (reference value: 4 uM). It counts as functional.
Experiment [9] deals with Staphylococcus aureus. The experiment is described as follows: Synergistic antibacterial activity against rifampicin-resistant Staphylococcus aureus ATCC 25923 assessed as fractional inhibitory concentration index incubated for 18 hrs in presence of rifampicin by checker board assay. It counts as functional.
Experiment [10] deals with Escherichia coli. Nature of the experiment: Antimicrobial activity against Escherichia coli ATCC 25922 assessed as reduction in bacterial growth incubated for 18 hrs in presence of 4.5 mM KCl by CLSI protocol based broth microdilution method (reference value: 4 uM). It counts as functional.

These results are taken from ChEMBL document CHEMBL5154808, “Novel β-Hairpin Antimicrobial Peptides Containing the β-Turn Sequence of -RRRF- Having High Cell Selectivity and Low Incidence of Drug Resistance” (J Med Chem, 2022).

For orientation: MIC means the least concentration at which growth counts as inhibited.

Activity calls are given as the source filed them. No cut-off for these calls is given here.

For H-KWKWKRRRFKWKWK-NH2, the “fractional inhibitory concentration index (FICI)” value with Escherichia coli [1] worked out at 0.5625. The MIC in the experiment on Staphylococcus aureus [2] is 8 µM; in the experiment with Escherichia coli [3], 8 µM; in the experiment with Staphylococcus aureus [4] it was 16 µM; with Staphylococcus aureus [7], 8 µM. Also, the result in the experiment with Escherichia coli [5] and with Staphylococcus aureus [6] was Active.
In the case of H-RIRIRRRRFRIRIR-NH2, the MIC turned out to be 4 µM in the experiment with Escherichia coli [8] and 8 µM in the experiment with Escherichia coli [10]. Further, the “fractional inhibitory concentration index (FICI)” value with Staphylococcus aureus [9] amounted to 0.375.
